Laboratory results as given in patent publication US11555035B2, “Heterocyclic compound and harmful arthropod-controlling agent containing same” (SUMITOMO CHEMICAL COMPANY, LIMITED, priority 2017, dated 2023).

Tested on: German cockroaches (Blattella germanica)
Test: Test method 9: treated filter paper with sucrose, German cockroaches
Format: in vivo
Settings: 500 ppm, 0.7 mL on filter paper, male adults, after 6 days
Procedure: Next, Test Examples are used to show effects of the Present compounds on harmful arthropods. In the following Test Examples, the tests were carried out at 25° C.
Each test compound is formulated according to the process described in the Formulation Example 5 to obtain each formulation, and water is added thereto to prepare a diluted solution containing a prescribed concentration of each test compound.
A filter paper having a diameter of 5.5 cm is lined with the inside bottom of a cup having a diameter of 5.5 cm, each of said diluted solutions (0.7 mL) is added dropwise on the filter paper, and sucrose (30 mg) is homogeneously placed into said cup as a feed. Two(2) male adult German cockroaches (Blattella germanica) are released into said cup, and the cup is covered. After 6 days, life and death of the German cockroach are examined, the number of the dead insects is counted, and the mortality of insects is calculated by the following equation. Mortality(%)=(Number of dead insects/Number of test insects)×100

| SMILES | mortality [%] |
| --- | --- |
| CCS(=O)(=O)c1cc(-c2ncc(C#N)cn2)cnc1-c1nc2cc(C(F)(F)F)cnc2n1C [compound 2] | 100 |
| CCS(=O)(=O)c1cc(-c2ncc(C#N)cn2)c(N)nc1-c1nc2cc(C(F)(F)F)cnc2n1C [compound 7] | 100 |
